Test results from patent publication US10987336B2, “Method of preventing or treating side effect of tumor therapy” (priority 2018, dated 2021).
Where two headings read alike, the source gives them in different places.

Tests used:
HUVEC cells [1] = assay: CCK-8 cell survival: ameliorating proliferative toxicity of VEGF/VEGFR inhibitor (Examples 4-15); type: cell-based; conditions: agent 100 μM, 24-48 h
HaCaT cells = type: cell-based, human
HUVEC cells [2] = type: cell-based; conditions: Sorafenib (V1) 10 μM + agent 50 μM, 24 hours, CCK-8
Calmodulin (CaM) = assay: Western Blot expression level in HaCaT cells (Example 147); type: cell-based, human; conditions: 24 hours, compared with the control group
Procedure: In the present application, compared effect of the nitric oxide releasing agent with calcium channel blocker on expression levels of calmodulin and calreticulin in HaCat cell The cultured HaCaT cells were digested, suspended, counted, and seeded into a 6-well plate with 200,000 cells per well. After the cells were attached, a nitric oxide releasing agent (or calcium channel blocker) solution was added to achieve a particular final concentration. A basic medium was added into the control group. At 24 hours after administration of the nitric oxide releasing agent (or calcium channel blocker), RIPA lysate [MUT], Beyotime Biotechnology) was used to extract protein. The change of expressions of calmodulin and calreticulin was determined by Western Blot. […] Image Lab was used to analyze the gray value results. GraphPad Prism 6.0 Software and t-test were used to carry out a statistic analysis of the results and plot a graph. Of those, represents P<0.001, ** represents P<0.01, * represents P<0.05, indicating a significant difference as compared with the corresponding control group; as statistically analyzed by using t-test.

[3] = HaCaT, Sorafenib (V1) 10 μM + agent 50 μM, 24 hours, CCK-8

| SMILES | Cell Survival Rate (viable cells increased vs VEGF/VEGFR inhibitor group) (HUVEC cells [1]; Regorafenib 10 μM) | Cell Survival Rate (viable cells increased vs VEGF/VEGFR inhibitor group) (HUVEC cells [1]; Sorafenib 5 μM) | Cell Survival Rate (viable cells increased vs VEGF/VEGFR inhibitor group) (HUVEC cells [1]; Sunitinib 5 μM) | Cell Survival Rate (viable cells increased vs VEGF/VEGFR inhibitor group) (HUVEC cells [1]; Apatinib 10 μM) | Cell Survival Rate (viable cells increased vs VEGF/VEGFR inhibitor group) (HUVEC cells [1]; Axitinib 10 μM) | Cell Survival Rate (viable cells increased vs VEGF/VEGFR inhibitor group) (HUVEC cells [1]; Lenvatinib Mesylate 10 μM) | Cell Survival Rate (viable cells increased vs VEGF/VEGFR inhibitor group) (HUVEC cells [1]; Nintedanib Esylate 10 μM) | Cell Survival Rate (viable cells increased vs VEGF/VEGFR inhibitor group) (HUVEC cells [1]; Pazopanib Hydrochloride 10 μM) | Cell Survival Rate (viable cells increased vs VEGF/VEGFR inhibitor group) (HUVEC cells [1]; Thalidomide 10 μM) | other results |
| --- | --- | --- | --- | --- | --- | --- | --- | --- | --- | --- |
| NCCN(CCN)/[N+]([O-])=N/O [3,3-Bis (aminoethyl)-1-hydroxy-2-oxo-1-triazene] | Increased by 15-20% | Increased by 35-45% | Increased by 20-30% |  |  |  |  |  |  |  |
| N=c1c[n+](N2CCOCC2)[n-]o1 [3-morpholinosydnonimine] | Increased by 15-20% | Increased by 30-40% | Increased by 10-20% |  |  |  |  |  |  |  |
| CC(C)CCON=O [Isoamyl Nitrite] | Increased by 15-20% | Increased by 30-40% | Increased by 20-25% | Increased by 40-50% | Increased by 20-30% | Increased by 30-50% | Increased by 30-50% | Increased by 20-30% | Increased by 20-30% |  |
| O=[N+]([O-])O[C@H]1CO[C@H]2[C@@H]1OC[C@H]2O[N+](=O)[O-] [Isosorbide Dinitrate] |  |  |  |  |  |  |  |  |  | Cell Survival Rate (percentage of viable cells increased as compared to the VEGF/VEGFR inhibitor group) (HaCaT cells; [3]): by 20-50% |
| O=[N+]([O-])O[C@@H]1CO[C@H]2[C@@H]1OC[C@@H]2O [Isosorbide Mononitrate] | Increased by 20-30% | Increased by 30-35% | Increased by 20-25% |  |  |  |  |  |  | Cell Survival Rate (percentage of viable cells increased as compared to the VEGF/VEGFR inhibitor group) (HUVEC cells [2]): by 20-40%; Cell Survival Rate (percentage of viable cells increased as compared to the VEGF/VEGFR inhibitor group) (HaCaT cells; [3]): by 20-50% |
| CCOC(=O)[N-]c1cn(N2CCOCC2)n[o+]1 [Molsidomine] | Increased by 20-30% | Increased by 30-40% | Increased by 20-30% | Increased by 40-50% | Increased by 20-30% | Increased by 30-50% | Increased by 30-50% | Increased by 20-30% | Increased by 20-30% |  |
| O=C(NCCO[N+](=O)[O-])c1cccnc1 [Nicorandil] | Increased by 20-30% | Increased by 50-60% | Increased by 10-20% | Increased by 40-50% | Increased by 20-30% | Increased by 30-50% | Increased by 30-50% | Increased by 20-30% | Increased by 20-30% |  |
| O=[N+]([O-])OCC(CO[N+](=O)[O-])O[N+](=O)[O-] [Nitroglycerin] |  |  |  |  |  |  |  |  |  | Cell Survival Rate (percentage of viable cells increased as compared to the VEGF/VEGFR inhibitor group) (HUVEC cells [2]): by 25-50%; Cell Survival Rate (percentage of viable cells increased as compared to the VEGF/VEGFR inhibitor group) (HaCaT cells): by 20-40% |
| CCCc1nn(C)c2c(=O)[nH]c(-c3cc(S(=O)(=O)N4CCN(C)CC4)ccc3OCC)nc12 [Sildenafil] | No significant change | No significant change | No significant change |  |  |  |  |  |  |  |
| COc1ccc([C@@H]2Sc3ccccc3N(CCN(C)C)C(=O)[C@@H]2OC(C)=O)cc1 [diltiazem] |  |  |  |  |  |  |  |  |  | expression level of calmodulin (CaM), gray value analysis (Calmodulin (CaM)): decreased significantly |
